Test results reported in patent US12492173B2, “Herbicidal substituted N-tetrazolyl aryl carboxamides” (Bayer Aktiengesellschaft, priority 2019, dated 2025).

Tests used:
Assay type in all cases: in vivo
[1] = tested on: Veronica persica; assay: Post-emergence herbicidal action, VERPE; parameters: key: % herbicidal action vs untreated; 100 = plants died, 0 = like control; settings: for Herbicidal action against VERPE: post-emergence, dosage 80 g/ha
Experimental: (§1) [table] 2. Post-Emergence Herbicidal Action Against Harmful Plants Seeds of monocotyledonous and dicotyledonous weed and crop plants are laid out in sandy loam soil in wood-fiber pots, covered with soil and cultivated in a greenhouse under good growth conditions. 2 to 3 weeks after sowing, the test plants are treated at the one-leaf stage. The compounds of the invention, formulated in the form of wettable powders (WP) or as emulsion concentrates (EC), are then sprayed onto the green parts of the plants in the form of an aqueous suspension or emulsion at a water application rate equating to 600 to 800 l/ha, with addition of 0.2% wetting agent. After the test plants have been left to stand in the greenhouse under optimal growth conditions for about 3 weeks, the action of the preparations is assessed visually in comparison to untreated controls (herbicidal action in percent (%): 100% activity=the plants have died, 0% activity=like control plants). […] The tables below illustrate, in an exemplary manner, the post-emergence herbicidal action of the compounds according to the invention, the herbicidal activity being stated in percent. In the experiments that follow, herbicidal action of numerous inventive compounds and the known compounds that are structurally closest from D1 (WO 2012/028579 A1) and D2 (WO 2018/202535 A1) were compared under the above-specified conditions by the pre-emergence and post-emergence method. The example numbers given in the tables relate to the compounds disclosed in the respective documents. In addition to the compounds disclosed in D1 and D2, the following compounds V-1 to V-14 that are encompassed by D1 or D2 but are not compounds specified therein were used in the comparative experiments: • V-1: 2-(methylsulfanyl)-3-(methylsulfinyl)-N-(1-methyl-1H-tetrazol-5-yl)-4-(trifluoromethyl)benzamide • V-2: 2-(methylsulfanyl)-3-(methylsulfonyl)-N-(1-methyl-1H-tetrazol-5-yl)-4-(trifluoromethyl)benzamide • V-3: 2,3-bis(ethylsulfanyl)-N-(1-methyl-1H-tetrazol-5-yl)-4-(trifluoromethyl)benzamide • V-4: 2-chloro-3-(ethylsulfanyl)-N-(1-methyl-1H-tetrazol-5-yl)-4-(trifluoromethyl)benzamide • V-5: 2-chloro-4-iodo-3-(methylsulfanyl)-N-(1-methyl-1H-tetrazol-5-yl)benzamide • V-6: 2-chloro-4-iodo-3-(methylsulfinyl)-N-(1-methyl-1H-tetrazol-5-yl)benzamide • V-7: 2-chloro-4-iodo-3-(methylsulfonyl)-N-(1-methyl-1H-tetrazol-5-yl)benzamide • V-8: 2-bromo-3-(methylsulfanyl)-N-(1-methyl-1H-tetrazol-5-yl)-4-(trifluoromethyl)benzamide • V-9: 2-bromo-3-(methylsulfinyl)-N-(1-methyl-1H-tetrazol-5-yl)-4-(trifluoromethyl)benzamide • V-10: 2-bromo-3-(methylsulfonyl)-N-(1-methyl-1H-tetrazol-5-yl)-4-(trifluoromethyl)benzamide • V-11: 2-bromo-3-(ethylsulfanyl)-N-(1-methyl-1H-tetrazol-5-yl)-4-(trifluoromethyl)benzamide • V-12: 2-bromo-3-(ethylsulfinyl)-N-(1-methyl-1H-tetrazol-5-yl)-4-(trifluoromethyl)benzamide • V-13: 2-bromo-3-(ethylsulfonyl)-N-(1-methyl-1-1H-tetrazol-5-yl)-4-(trifluoromethyl)benzamide • V-14: 2-cyclopropyl-3-(ethylsulfanyl)-N-(1-methyl-1H-tetrazol-5-yl)-4-(trifluoromethyl)benzamide Herbicidal Pre-Emergence Action: […]

[2] = tested on: Amaranthus retroflexus; assay: Pre-emergence herbicidal action, AMARE; settings: dosage 320 g/ha
Source text: (§2) 1. Pre-Emergence Herbicidal Action Against Harmful Plants Seeds of monocotyledonous and dicotyledonous weed plants and crop plants are laid out in sandy loam soil in wood-fiber pots and covered with soil. The compounds of the invention, formulated in the form of wettable powders (WP) or as emulsion concentrates (EC), are then applied to the surface of the covering soil in the form of an aqueous suspension or emulsion at a water application rate equating to 600 to 800 l/ha, with addition of 0.2% wetting agent. After the treatment, the pots are placed in a greenhouse and kept under good growth conditions for the trial plants. The damage to the test plants is scored visually after a test period of 3 weeks by comparison with untreated controls (herbicidal activity in percent (%): 100% activity=the plants have died, 0% activity=like control plants). […] The tables below illustrate, in an exemplary manner, the […] herbicidal action of the compounds according to the invention, the herbicidal activity being stated in percent. [table] In the experiments that follow, herbicidal action of numerous inventive compounds and the known compounds that are structurally closest from D1 (WO 2012/028579 A1) and D2 (WO 2018/202535 A1) were compared under the above-specified conditions by the pre-emergence and post-emergence method. The example numbers given in the tables relate to the compounds disclosed in the respective documents. In addition to the compounds disclosed in D1 and D2, the following compounds V-1 to V-14 that are encompassed by D1 or D2 but are not compounds specified therein were used in the comparative experiments: • V-1: 2-(methylsulfanyl)-3-(methylsulfinyl)-N-(1-methyl-1H-tetrazol-5-yl)-4-(trifluoromethyl)benzamide • V-2: 2-(methylsulfanyl)-3-(methylsulfonyl)-N-(1-methyl-1H-tetrazol-5-yl)-4-(trifluoromethyl)benzamide • V-3: 2,3-bis(ethylsulfanyl)-N-(1-methyl-1H-tetrazol-5-yl)-4-(trifluoromethyl)benzamide • V-4: 2-chloro-3-(ethylsulfanyl)-N-(1-methyl-1H-tetrazol-5-yl)-4-(trifluoromethyl)benzamide • V-5: 2-chloro-4-iodo-3-(methylsulfanyl)-N-(1-methyl-1H-tetrazol-5-yl)benzamide • V-6: 2-chloro-4-iodo-3-(methylsulfinyl)-N-(1-methyl-1H-tetrazol-5-yl)benzamide • V-7: 2-chloro-4-iodo-3-(methylsulfonyl)-N-(1-methyl-1H-tetrazol-5-yl)benzamide • V-8: 2-bromo-3-(methylsulfanyl)-N-(1-methyl-1H-tetrazol-5-yl)-4-(trifluoromethyl)benzamide • V-9: 2-bromo-3-(methylsulfinyl)-N-(1-methyl-1H-tetrazol-5-yl)-4-(trifluoromethyl)benzamide • V-10: 2-bromo-3-(methylsulfonyl)-N-(1-methyl-1H-tetrazol-5-yl)-4-(trifluoromethyl)benzamide • V-11: 2-bromo-3-(ethylsulfanyl)-N-(1-methyl-1H-tetrazol-5-yl)-4-(trifluoromethyl)benzamide • V-12: 2-bromo-3-(ethylsulfinyl)-N-(1-methyl-1H-tetrazol-5-yl)-4-(trifluoromethyl)benzamide • V-13: 2-bromo-3-(ethylsulfonyl)-N-(1-methyl-1-1H-tetrazol-5-yl)-4-(trifluoromethyl)benzamide • V-14: 2-cyclopropyl-3-(ethylsulfanyl)-N-(1-methyl-1H-tetrazol-5-yl)-4-(trifluoromethyl)benzamide Herbicidal Pre-Emergence Action: […]

[3] = tested on: Stellaria media; assay: Post-emergence herbicidal action, STEME; parameters: key: % herbicidal action vs untreated; 100 = plants died, 0 = like control; settings: for Herbicidal action against STEME: post-emergence, dosage 80 g/ha
Experimental: as §1

[4] = tested on: Abutilon theophrasti; assay: Pre-emergence herbicidal action, ABUTH; settings: dosage 320 g/ha
Source text: as §2

[5] = tested on: Echinochloa crus-galli; assay: Post-emergence herbicidal action, ECHCG; parameters: key: % herbicidal action vs untreated; 100 = plants died, 0 = like control; settings: for Herbicidal action against ECHCG: post-emergence, dosage 80 g/ha
Experimental: as §1

[6] = tested on: Veronica persica; assay: Pre-emergence herbicidal action, VERPE; settings: dosage 320 g/ha
Source text: as §2

[7] = tested on: Matricaria inodora; assay: Post-emergence herbicidal action, MATIN; parameters: key: % herbicidal action vs untreated; 100 = plants died, 0 = like control; settings: for Herbicidal action against MATIN: post-emergence, dosage 80 g/ha
Experimental: as §1

[8] = tested on: Amaranthus retroflexus; assay: Post-emergence herbicidal action, AMARE; parameters: key: % herbicidal action vs untreated; 100 = plants died, 0 = like control; settings: for Herbicidal action against AMARE: post-emergence, dosage 80 g/ha
Experimental: as §1

[9] = tested on: Echinochloa crus-galli; assay: Pre-emergence herbicidal action, ECHCG; settings: dosage 320 g/ha
Source text: as §2

[10] = tested on: Matricaria inodora; assay: Pre-emergence herbicidal action, MATIN; settings: dosage 320 g/ha
Source text: as §2

[11] = tested on: Polygonum convolvulus; assay: Pre-emergence herbicidal action, POLCO; settings: dosage 320 g/ha
Source text: as §2

[12] = tested on: Abutilon theophrasti; assay: Post-emergence herbicidal action, ABUTH; parameters: key: % herbicidal action vs untreated; 100 = plants died, 0 = like control; settings: for Herbicidal action against ABUTH: post-emergence, dosage 80 g/ha
Experimental: as §1

[13] = tested on: Pharbitis purpurea; assay: Post-emergence herbicidal action, PHBPU; settings: for Herbicidal action against PHBPU: post-emergence, dosage 80 g/ha
Experimental: as §1

[14] = tested on: Viola tricolor; assay: Post-emergence herbicidal action, VIOTR; parameters: key: % herbicidal action vs untreated; 100 = plants died, 0 = like control; settings: for Herbicidal action against VIOTR: post-emergence, dosage 80 g/ha
Experimental: as §1

[15] = tested on: Stellaria media; assay: Pre-emergence herbicidal action, STEME; settings: dosage 320 g/ha
Source text: as §2

[16] = tested on: Setaria viridis; assay: Post-emergence herbicidal action, SETVI; parameters: key: % herbicidal action vs untreated; 100 = plants died, 0 = like control; settings: post-emergence, dosage 80 g/ha
Experimental: as §1

[17] = tested on: Avena fatua; assay: Post-emergence herbicidal action, AVEFA; parameters: key: % herbicidal action vs untreated; 100 = plants died, 0 = like control
Experimental: as §1

[18] = tested on: Viola tricolor; assay: Pre-emergence herbicidal action, VIOTR; settings: dosage 320 g/ha
Source text: as §2

[19] = tested on: Setaria viridis; assay: Pre-emergence herbicidal action, SETVI; settings: dosage 320 g/ha
Source text: as §2

Compound | Herbicidal action against VERPE [1] | herbicidal action AMARE [2] [%] | Herbicidal action against STEME [3] | herbicidal action ABUTH [4] [%] | Herbicidal action against ECHCG [5] | herbicidal action VERPE [6] [%] | Herbicidal action against MATIN [7] | Herbicidal action against AMARE [8] | herbicidal action ECHCG [9] [%] | herbicidal action MATIN [10] [%] | herbicidal action POLCO [11] [%] | Herbicidal action against ABUTH [12] | Herbicidal action against PHBPU [13] | Herbicidal action against VIOTR [14] | herbicidal action STEME [15] [%] | Herbicidal action against SETVI [16] | herbicidal action VIOTR [18] [%] | further results
CCCn1nnnc1NC(=O)c1ccc(C)c(CS(C)(=O)=O)c1Cl [Example 3-289] | 90 | 100 | 90 | 80 | 90 | 90 | 100 | 90 | 100 | 100 | 80 | 80 |  |  |  |  |  | 
Cn1nnnc1NC(=O)c1ccc(C(F)(F)F)c(CS(=O)(=O)CC(F)(F)F)c1Cl [Example 1-313] | 80 | 100 | 100 | 100 |  |  | 90 | 90 |  |  |  | 100 | 90 | 80 | 90 | 80 |  | 
CCn1nnnc1NC(=O)c1ccc(S(C)(=O)=O)c(CSC)c1Cl [Example 2-278] |  | 90 |  | 100 |  | 100 |  |  |  | 90 |  |  |  |  |  |  |  | herbicidal action VERPE ([1]; Dosage 80 g/ha): 100; herbicidal action PHBPU ([13]; Dosage 80 g/ha): 80; herbicidal action STEME ([3]; Dosage 80 g/ha): 80; herbicidal action ECHCG ([5]; Dosage 80 g/ha): 100; herbicidal action AVEFA ([17]; Dosage 80 g/ha): 100; herbicidal action MATIN ([7]; Dosage 80 g/ha): 90; herbicidal action VIOTR ([14]; Dosage 80 g/ha): 100; herbicidal action AMARE ([8]; Dosage 80 g/ha): 90; herbicidal action ABUTH ([12]; Dosage 80 g/ha): 90
CCCn1nnnc1NC(=O)c1ccc(S(C)(=O)=O)c(C[S+](C)[O-])c1C (centres unmarked) [Example 3-38] | 100 | 90 | 100 |  | 90 | 100 | 80 | 100 |  | 100 | 80 | 90 |  | 100 | 90 | 80 | 100 | 
CCCn1nnnc1NC(=O)c1ccc(C(F)F)c(C[S+](C)[O-])c1C (centres unmarked) [Example 3-108] | 100 | 100 | 100 | 100 | 80 | 90 | 90 | 80 | 90 | 100 |  |  | 100 | 100 |  |  | 100 | Herbicidal action against AVEFA ([17]; post-emergence, dosage 80 g/ha): 80; herbicidal action SETVI [19]: 90%
